In patent publication US9649381B2, “Transporter protein-coupled nanodevices for targeted drug delivery” (Wayne State University, priority 2013, dated 2017):

Tests used:
C2Hx rats = experiment: EMG recording of diaphragm recovery in C2Hx rats after injection into the paralyzed hemidiaphragm; format: in vivo, rat
Text: In one case, rats with hemisection at C2Hx, hereafter “C2Hx rats,” have undergone surgical treatment to disrupt the bulbospinal pathway from the rVRG to the PN, the primary source for descending respiratory drive. Paralysis of the ipsilateral diaphragm muscle in C2Hx confirmed by electomygram (EMG). In such rats, the latent crossed phrenic pathway remains intact, as axons decussate caudal to injury.
In one example, a nanodevice with a targeting portion of WGA-HRP and a molecule to be delivered of pro-THP, the pro-THP being bound to the connecting portion by a slow drug release linker, was administered by injection into the paralyzed hemidiaphragms of a cohort of 11 C2-hemisected rats. About 50 μl of the nanodevice, which contained about 0.275 μg of pro-THP, was injected. Five 10 μl injections were conducted at even spatial intervals to spread the conjugate throughout the hemidiaphragm. This constitutes a single round of injections and thus considered to be a one-time, single-injection type of treatment.
FIG. 3 illustrates a trial of C2Hx rats that have been treated with a WGA-HRP/gold/pro-theophylline nanodevice. In each plot, the Y-axis 301a/b/c/d represents a voltage signal and the X-axis 302/a/b/c/d represents time, increasing from left to right. Two different types of plots are shown in FIG. 3; FIG. 3A-C are EMG recordings and FIG. 3D is a phrenic nerve recording. […]

[1] = system: rat spinal cord injury model animals; experiment: Chronic systemic drug administration, persistence of hemidiaphragm recovery in spinal cord injury model animals; format: in vivo; conditions: multiple systemic administrations over 3 days
Text: Chronic administrations of theophylline, however, induce plasticity in the respiratory pathways which results in recovery that persists for days. Specifically, three days of orally administered theophylline three times per day (for a total of nine doses) was sufficient to bring about and maintain respiratory recovery that persisted for about 3 days, about 7 days, about 12 days, and about 30 days after the last drug administration in separate groups of animals.
Theophylline is both an adenosine receptor antagonist and a phosphodiesterase (PDE) inhibitor. Chronic administration of rolipram (a PDE-4 specific inhibitor), pentoxifylline (a general PDE inhibitor), or DPCPX (an adenosine A1 receptor antagonist) also induce persistent functional recovery of a paralyzed hemidiaphragm in rat spinal cord injury model animals for as long as 10 days, the longest interval studied, after the animal is last exposed to the drugs. Although rolipram and pentoxifylline have been approved for clinical use, these “first generation” PDE inhibitors can induce the same side effects as theophylline, including nausea and vomiting.

[2] = system: patients with cervical spinal cord injury; conditions: cited from earlier work

SMILES | dosage required for recovery in a rat (C2Hx rats; single administration, studies like FIG. 3A-D) [microgram] | amount of theophylline required to realize recovery (C2Hx rats; C2Hx rats, systemic treatment) [mg/kg] | recovery after multiple systemic administrations [1] | left diaphragm EMG activity ([2]; patient with asymmetrical cervical spinal cord injury, acute and chronic theophylline) | increase in diaphragm EMG activity, maximum ([2]; tetraplegic patient, ventilator dependent, intravenous, increasing doses over one day, therapeutic levels) [%]
CCCn1c(=O)c2[nH]c(C3CCCC3)nc2n(CCC)c1=O [DPCPX, 1,3-dipropyl-8-cyclopentylxanthine] | 0.093 |  |  |  | 
Cn1c(=O)c2[nH]cnc2n(C)c1=O [theophylline] |  | 15 | long-lasting recovery | markedly increased | 50
